Measured values reported in ChEMBL document CHEMBL1221352, “Synthesis and biological activity of flavanone derivatives” (Bioorg Med Chem Lett, 2010).

Assays:
[1] = test system: Bel-7402; test: Antitumor activity against human Bel7402 cells; format: functional; parameters: concentration or dose not given beside the values
[2] = test system: BGC-823; test: Antitumor activity against human BGC823 cells; format: functional; parameters: concentration or dose not given beside the values
[3] = test system: KB; test: Antitumor activity against human KB cells; format: functional; parameters: concentration or dose not given beside the values
[4] = Antivegetative activity against rat VSMC; format: functional, cell-based
[5] = test system: HUVEC; test: Cytoprotectant activity against H2O2-induced injury in HUVEC cells; format: functional, cell-based, Homo sapiens
[6] = test system: HL-60; test: Antitumor activity against human HL60 cells; format: functional; parameters: concentration or dose not given beside the values
[7] = Inhibition of protein tyrosin kinase
[8] = Homo sapiens, HUVEC, read-out: EC50

Row | IC50 ([4]; read-out: IC50) [µM] | IC50 ([7]; read-out: IC50) [µM] | IC50 [4] | IC50 [7] | Structure (SMILES) | Activity [1] [%] | Activity [2] [%] | Activity [3] [%] | EC50 ([5]; huvec) | Activity [6] [%] | EC50 [5, 8] [µM]
1 | > 100 |  |  |  | Cc1c(O)c(C)c2c(c1O)C(=O)C[C@@H](c1ccccc1)O2 [DEMETHOXYMATTEUCINOL] | 2.63 | 13.51 | 3.64 | Not Active |  | 
2 |  | > 200 | Not Active |  | Cc1c(O)c(C)c2c(c1O)C(=O)CC(c1ccc(O)cc1)O2 (centres undefined) | -6.53 | -23.52 | -7.21 |  | -3.37 | > 20
3 | 6.7 |  |  | Not Active | Cc1c(O)c(C)c2c(c1O)C(=O)CC(c1ccco1)O2 (centres undefined) | 3.27 | -9.68 | -26.34 |  | 12.96 | > 20
4 |  |  | Not Active | Not Active | Cc1c(O)c(C)c2c(c1O)C(=O)CC(c1ccc(Cl)cc1)O2 (centres undefined) | -7.1 | -22.45 | 15.89 |  | 7.65 | > 50
5 |  |  | Not Active | Not Active | Cc1c(O)c(C)c2c(c1O)C(=O)CC(c1ccsc1)O2 (centres undefined) | 11.59 | 50.71 | 16.07 |  | 10.82 | > 50
6 | > 20 | > 50 |  |  | Cc1c(O)c(C)c2c(c1O)C(=O)CC(c1ccccc1Cl)O2 (centres undefined) | 18.7 | 36.98 | 28.63 |  | 2.94 | > 20
7 |  | 55 | Not Active |  | Cc1c(O)c(C)c2c(c1O)C(=O)CC(c1ccccc1O)O2 (centres undefined) | -1.8 | -6.69 | 44.54 |  | -6.47 | > 20
8 |  | 51 | Not Active |  | Cc1c(O)c(C)c2c(c1O)C(=O)CC(c1cccc(O)c1)O2 (centres undefined) | -5.48 | -7.6 | 28.66 |  | -4.04 | > 20

The remaining lines, values behind:

Row | Structure (SMILES) | IC50 ([4]; read-out: IC50) [µM] | IC50 ([7]; read-out: IC50) [µM] | IC50 [4] | IC50 [7] | Activity [1] [%] | Activity [2] [%] | Activity [3] [%] | EC50 ([5]; huvec) | Activity [6] [%] | EC50 [5, 8] [µM]
9 | COc1cc(O)ccc1C1CC(=O)c2c(O)c(C)c(O)c(C)c2O1 (centres undefined) | > 100 | > 200 |  |  | 2.54 | 4.85 | -18.83 |  | -1.29 | > 20
10 | COc1ccc(C2CC(=O)c3c(O)c(C)c(O)c(C)c3O2)c(OC)c1 (centres undefined) |  |  | Not Active | Not Active |  |  |  | Not Active |  | 
11 | COc1ccc2cc1Oc1ccc(cc1)C[C@H]1c3cc(c(OC)cc3CCN1C)Oc1c(OC)c(OC)cc3c1[C@H](C2)N(C)CC3 [FANCHININ] | 1.48 |  |  |  |  |  |  |  |  | 
12 | Cc1c(O)c(C)c2c(c1O)C(=O)CC(c1c[nH]c3ccccc13)O2 (centres undefined) |  |  | Not Active | Not Active | 6.45 | 1.67 | 10.47 |  | 11.39 | > 10
13 | Cc1c(O)c(C)c2c(c1O)C(=O)CC(c1ccc([N+](=O)[O-])cc1)O2 (centres undefined) |  |  | Not Active | Not Active | 2.05 | -7.41 | -9.11 |  | -0.46 | > 20
14 | COc1ccccc1C1CC(=O)c2c(O)c(C)c(O)c(C)c2O1 (centres undefined) |  | > 100 | Not Active |  |  |  |  |  |  | > 20
15 | COc1ccc(C2CC(=O)c3c(O)c(C)c(O)c(C)c3O2)cc1 (centres undefined) | > 100 | > 100 |  |  | 15.15 | -28.89 | -11.99 | Not Active | 8.52 | 
16 | Cc1c(O)c(C)c2c(c1O)C(=O)CC(c1ccccc1[N+](=O)[O-])O2 (centres undefined) | 9.9 | > 50 |  |  | 27.18 | 52 | 29.04 |  | -6.16 | > 5
17 | O=c1c(-c2ccc(O)cc2)coc2cc(O)cc(O)c12 [GENISTEIN] |  | 13.6 |  |  |  |  |  |  |  | 
18 | Cc1c(O)c(C)c2c(c1O)C(=O)CC(c1ccc(O)c(O)c1)O2 (centres undefined) [CYRTOMINETIN] |  | > 50 | Not Active |  | -7.68 | -19.81 | 45.3 |  | -4.85 | > 20
